Data taken from US20260207717A1, “METHODS FOR TREATING INFANTILE-ONSET POMPE DISEASE IN PEDIATRIC PATIENTS” (Amicus Therapeutics, Inc., priority 2022, published 2026).

How the values were obtained:
[1] = tested on: subjects with Pompe disease; details: LOPD, systematic review (Toscano and Schoser 2013); cited from earlier work
[2] = tested on: single fibers isolated from the white gastrocnemius of Gaa KO mice; test: Single fiber analysis (LAMP1/LC3 co-immunofluorescence); format: in vivo
Source text: FIG. 17 depicts co-immunofluorescent staining of LAMP1 (green) (see for example, “B”) and LC3 (red) (see, for example, “A”) in single fibers isolated from the white gastrocnemius of Gaa KO mice treated with a vehicle, alglucosidase alfa, or ATB200. “C” depicts clearance of autophagic debris and absence of enlarged lysosome. A minimum of 30 fibers were examined from each animal.
As a result, a significant portion of muscle fibers analyzed (36-60%) from ATB200-treated mice appeared normal or near-normal.

[3] = tested on: LAMP1, LC3, dysferlin in muscle fibers; test: Biomarker changes (LAMP1, LC3, dysferlin) in muscle of Gaa KO mice; format: in vivo
Experimental: The therapeutic effects of ATB200 and miglustat were evaluated and compared against those of Alglucosidase alfa in Gaa KO mice. For the study, male Gaa KO (3- to 4-month old) and age-matched wild-type (WT) mice were used. Alglucosidase alfa was administered via bolus tail vein intravenous (IV) injection. In the co-administration regimen, miglustat was administered via oral gavage (PO) 30 minutes prior to the IV injection of ATB200. Treatment was given biweekly. Treated mice were sacrificed after 14 days from the last administration and various tissues were collected for further analysis. Table 11 summarizes the study design:
Tissue samples were also analyzed for biomarker changes following the methods discussed in: Khanna R, et al. (2012), “The pharmacological chaperone [i.e., enzyme stabilizer] […]
Similarly, intense LC3-positive aggregates in the muscle fibers of untreated Gaa KO mice signify the presence of autophagic zones and autophagy build-up. […] A similar observation was made when the expression of LC3 was assessed using western blot. […]
Dysferlin, a protein involved in membrane repair and whose deficiency/mistrafficking is associated with a number of muscular dystrophies, was also assessed.

[4] = tested on: adult subjects with late-onset Pompe disease (LOPD); test: ATB200-03 (PROPEL) phase 3 trial, efficacy; format: in vivo, human; details: for absolute decline in percent-predicted FVC: 52 weeks; for 6MWD Baseline / FVC (% predicted) Baseline: before treatment
Experimental: Efficacy Analyses. The primary efficacy endpoint (i.e., change from baseline to Week 52 in 6MWD) was analyzed using a parametric analysis of covariance (ANCOVA) model to compare between the new treatment and the control. […] However, the baseline 6MWD could not be used in the model twice (both as a continuous and a categorical variable) due to the expected high point biserial correlation between them. Thus, the 6MWD continuous variable remained in the model but the categorical 6MWD was removed.

[5] = tested on: adult subjects with late-onset Pompe disease (LOPD); test: ATB200-03 (PROPEL) trial, safety; parameters: species or system human; details: in vivo
Source text: Concomitant medications and nondrug therapies were also be recorded.
Safety Analyses. Safety data was summarized using counts and percentages for categorical data and descriptive statistics (mean, standard deviation, median, minimum, maximum) for continuous data. • Efficacy Results from the ATB200-03 Trial

[6] = tested on: creatine kinase (CK), urinary hexose tetrasaccharide (Hex4); test: ATB200-03 (PROPEL) trial, biomarkers; format: in vivo, human; details: for mean urinary Glc4 concentration: ERT-experienced patients
Source text: Pharmacodynamic endpoints were as follows: • change from baseline to Week 52 in serum CK level • change from baseline to Week 52 in urinary Hex4 level

[7] = tested on: LOPD population (ERT-naïve and ERT-experienced); test: Indirect treatment comparison, multi-level network meta regression (ML-NMR); parameters: species or system human; details: base-case scenario, sensitivity analysis (RCT data only, FIGS. 66, 67)
Experimental: Moreover, a comparison of three randomized clinical trials (LOTS: alglucosidase alfa vs placebo; COMET: avalglucosidase alfa vs alglucosidase alfa; and PROPEL: cipaglucosidase alfa/miglustat vs alglucosidase alfa) share 6MWD and % predicted FVC as key primary or secondary endpoints. Using patient-level data from the PROPEL randomized clinical trial (RCT) plus aggregate published data from other RCTs, Phase I/II and open label extension trials, a multi-level network meta-regression was conducted, adjusting for various baseline covariates including previous ERT duration. The base case scenario had covariates resembling the PROPEL population (naïve and ERT-experienced) and analyzed 6MWD and FVC change from baseline at 52 weeks. […]
A systematic literature review (SLR) was conducted to identify relevant published clinical studies of ERTs in LOPD. Outcomes assessed were change from baseline in 6-minute walking distance (6MWD) (m) and in forced vital capacity (FVC; % predicted) at week 52, acknowledged by clinicians, HTA agencies and payers as key LOPD trial endpoints. […]
A base-case scenario was evaluated in which all covariates were set to the target population of the PROPEL trial. […]

[8] = ERT treatment naive population, listed as Alglucosidase alfa
[9] = overall ERT switch and ERT naïve population

[199-arginine,223-histidine]prepro-α-glucosidase (human) [alglucosidase alfa]
subjects without initial improvement during treatment [1]: > 30% | Fibers with Autophagy Buildup [2]: >90% | Fibers with Normal or Near-normal Appearance [2]: <10% | LC3 II levels (western blot), effect on autophagy [3]: modest | 6MWD CFBL at Week 52 ([4]; ERT switch population): 0.0 m | FVC (% predicted) CFBL at Week 52 ([4]; ERT switch population): −4.0 (0.9) % predicted | absolute decline in percent-predicted FVC ([4]; ERT switch population): 4.0% | 6MWD Baseline ([4]; ERT switch population): 334.6 (114.0) m | FVC (% predicted) Baseline ([4]; ERT switch population): 67.5 (21.0) % predicted | 6MWD CFBL at Week 52 ([4]; ERT switch population, listed as Alglucosidase alfa): 0.0 (7.2) m | 6MWD CFBL at Week 52 ([4]; ERT treatment naive population): 38 m | FVC (% predicted) CFBL at Week 52 ([4]; ERT treatment naive population): −3.6 % predicted | 6MWD Baseline ([4]; ERT treatment naive population): 420.9 (135.7) m | FVC (% predicted) Baseline ([4]; ERT treatment naive population): 79.1 (22.6) % predicted | 6MWD CFBL at Week 52 [4, 8]: +38.3 (11.1) m | FVC (% predicted) CFBL at Week 52 [4, 8]: −3.6 (1.8) % predicted | mean change (SD) in MMT score for lower extremities ([4]; baseline to week 52): 0.9 (2.58) | mean change in total GSGC score ([4]; baseline to week 52): 0.77 (1.8) | 6MWD CFBL at Week 52 [4, 9]: 7 m | 6MWD Baseline [4, 9]: 351.0 (121.3) m | 6MWD CFBL at Week 52 ([4]; overall ERT switch and ERT naïve population, listed as Alglucosidase alfa): +7.2 (6.6) m | GSGC compared to alglucosidase alfa ([4]; overall and ERT-experienced populations, week 52): worsening | FVC (% predicted) CFBL at Week 52 ([4]; overall population): −4.0 (0.8) % predicted | absolute decline in percent-predicted FVC ([4]; overall population): 4.0% | FVC (% predicted) Baseline ([4]; overall population): 69.7 (21.5) % predicted | patients who discontinued treatment due to an adverse event [5]: 2.6% | patients with injection associated reactions (IARs) [5]: 26% | mean urinary Glc4 concentration ([6]; Week 52): 9.1 mmol/mol | mean urinary Glc4 concentration ([6]; baseline): 7.2 mmol/mol | mean change of CK ([6]; after 52 weeks): +15.6% | mean change of urine Hex-4 ([6]; combined ERT switch and ERT naïve population, after 52 weeks): +11.0% | relative effect on 6MWT and FVC [7]: numerically favorable versus placebo
